In one series the test system is 5FUR HCT116 cells. As to the kind of experiment: EMT markers in colon cancer cells (Western blot). Type of series: cell-based. The note with it: for EMT markers ZO-1, E-Cadherin, Snail, β-catenin: 5FUR HCT116, 72 h, in the presence of 5FU. Here is the method: FIG. 41: Western blot analysis of EMT markers in 5FUR HCT116 cells in treated (72 h) with 5FU in the presence or absence of UroA/UAS03.
UroA/UAS03 treatment reduce epithelial-mesenchymal transitions (EMT) signature in 5FU resistant (5FU R) colon cancer cells: We examined EMT markers in 5FU sensitive (parent) and 5FU resistant (5FUR) HCT116 colon cancer cell lines. […] The reciprocal expression of these molecules are hallmarks of EMT signature. Next, we examined whether treatment with UroA/UAS03 can reverse these patterns in 5FUR cells. […] One of the mechanisms by which cancer cells acquire chemoresistant phenotype is by the induction of drug transporters such as Multidrug resistance-associated protein 2 (MRP2), ATP-binding cassette (ABC) drug efflux transporter proteins, BCRP and P-gycoprotein (P-gp).

The next series deals with C57BL/6 mice. Nature of the series: TNBS-induced colitis. Type of series: in vivo, mouse. The note with it: for colitis phenotype, therapeutic regimen: 20 mg/kg from 24 h post-TNBS; for TNBS-induced colon shortening and colonic inflammation, pre-treatment / barrier function, pre-treatment: oral 20 mg/kg daily one week before TNBS, none after.
For a further series, the system named is AhR. Nature of the series: AhR nuclear translocation. The note with it: HT29, 50 μM. It counts as cell-based, human. Here is the method:
(§1) Confocal Imaging: HT29 or CaCo2 or BMDM cells (50,000 cells/well) were plated on to 8-well chambered slides (154534PK; ThermoFisher Scientific) allowed them to grow overnight. The cells were induced with vehicle (0.01% DMSO) or UroA (50 μM) or UAS03 (50 μM) for desired time points and fixed with cold methonol. The AhR or Nrf2 or Cldn4 stained with respective antibodies (1:200 dilution) followed by fluorecently labelled (Alexa flour 594 for AhR and Alexa flour 488 for Nrf2 and Cldn4) secondary ab (1:500 dilution; ThermoFisher Scientific). The nucleus was stained with DAPI (Sigma Aldrich). The confocal images were captured using Nikon AIR confocal microscope using 60× magnification lense with appropriate laser channels.

The test system of another series is Cyp1A1. Nature of the series: Cyp1A1 enzyme activity in colon and liver microsomes of treated mice. It counts as in vivo, mouse. The note with it: 1 week; for Cyp1A1 activity in colon tissues compared to BNF and FICZ treated mice: UroA/UAS03 oral 20 mg/kg/day, FICZ i.p.; for Cyp1A1 activity increase in colons: i.p., UroA/UAS03 5 mg/kg/day, FICZ 1 μg/mouse/day; for Cyp1A1 activity in colon and liver, AhR^−/− mice / Cyp1A1 activity in colon and liver, wild type mice: oral 20 mg/kg, EROD. Here is the method: Measurements of Cyp1A1 enzyme activity (Ex vivo): Mice were treated with Vehicle or UroA or UAS03, BNF or FICZ daily for one week at indicated concentration either through oral or i.p. route. After one week, mice were euthanized and the colon and liver tissues were dissected. Microsomes from these tissues were prepared using the following procedure (SINGH et al., (2013) “Evaluation of memory enhancing clinically available standardized extract of Bacopa monniera on P-glycoprotein and cytochrome P450 3A in Sprague-Dawley rats” PloS one, Vol. 8, Article e72517). For hepatic microsomes, liver was first perfused with 0.9% sodium chloride solution and excised out. Adhering blood and saline was removed by blotting on tissue paper and tissue was homogenized in tissue homogenization buffer (50 mM Tris-HCl, pH 7.4 with 250 mM sucrose). Homogenate was centrifuged at 10,000×g for 30 minutes at 4° C. supernatant obtained was further centrifuged at 105,000×g for 60 minutes at 4° C. The pellet was washed with homogenization buffer and centrifuged again at 105,000×g for 60 minutes at 4° C. The pellet was suspended in homogenization buffer and used for protein and CYP assay. For intestinal microsome preparation, intestine was removed and washed with 0.9% sodium chloride. The intestine was longitudinally cut open to expose mucosal layer and mucosa was scrapped with help of glass slide. The scraped tissue was collected in homogenization buffer (50 mM Tris-HCl buffer containing glycerol (20% v/v), protease inhibitor (1%) and heparin (3 U/ml)). This suspended mucosa was homogenized and centrifuged at 10,000×g for 20 minutes at 4° C. Supernatant obtained was further centrifuged at 105,000×g for 60 minutes at 4° C. The pellet was washed with buffer and centrifuged again at 105,000×g for 60 minutes at 4° C. The pellet was suspended homogenization buffer and used for protein and CYP enzymes assays.
Ethoxyresorufin-O-deethylase (EROD) assay: The microsomal proteins (0.5 mg) were mixed with 200 μL Tris buffer (0.1 M, pH 7.4) containing ethoxyresorufin (0.01 mM). To start reaction, NADPH (0.1 mM) was added and incubated at 37° C. for 10 min. After 10 min, reaction was terminated by adding equal volume of acetonitrile and reaction mixture was centrifuged at 13000×g for 10 min at 4° C. Supernatant was used to determine resorufin by measuring fluorescence (Ex. 530 nm, Em. 580 nm). Pure resorufin (Sigma Aldrich) was used to generate standard curve.
P450-Glo Cyp1A1 luminiscence assay: The above microsomes (20 μg) were used for P450-Glo Cyp1A1 luminiscence assays as per manufacturer's instructions.
On the technique in general: Liver microsomes are vesicles of endoplasmic reticulum, rich in cytochrome P450 enzymes.

The next series has as its system Nrf2. As to the kind of experiment: Nrf2 expression, nuclear translocation and target genes. The note with it: for NQO1 expression in HT29 cells: 50 μM; for Nrf2 mRNA and protein levels / Nrf2 nuclear translocation: HT29, 50 μM; for Nrf2 nuclear translocation: 6 h. It counts as cell-based, human. Here is the method: Real time PCR: Total RNA was isolated from cells/tissue using Maxwell® 16 LEV simplyRNA tissue kit (Promega) and reverse transcribed with TaqManC Reverse transcription Kit (Applied Biosystems, CA, USA). The transcribed cDNA (after dilution) was mixed with 100 nM gene specific primers (Real time primers LLC) and 1×SYBR green reaction mix (Power SYBR® Green PCR Master Mix; Applied Biosystems, CA, USA). Changes in gene expression was analyzed using CFX96™ Real-Time System (Bio Rad) and fold change in expression was calculated using 2^ΔΔCT method using GAPDH/0-actin as house keeping gene and normalized with untreated control.
Immunoblots (Western blots): The total protein lysates were collected either from colon tissue/cells using radioimmunoprecipitation assay (RIPA) buffer (Sigma-Aldrich, USA) and quantified using BCA protein quantification kit (Thermo Scientific) as per instructional manual. Total protein (20-50 μg) of was resolved on NuPAGE™ 4-12% Bis-Tris gel (Novex Life technologies) and transferred to polyvinylidene difluoride membrane (0.22 μm pore; Millipore, USA). After blocking with 5% (w/v) skim milk powder (containing 1×TBS) for 1 h, the membrane was then incubated with respective antibodies at 4° C. overnight (dilutions of respective antibodies is given in Table A1). Next day, respective secondary antibody conjugated with Horseradish peroxidase were probed and the chemiluminescent substrate was used to detect the protein bands (ImageQuant LAS 4000). Densitometry analysis of bands were done using ImageJ software. Antibodies for Cldn4, Ocln, Cldn1, Cyp1A1, AhR, HO1, NQO1, Keap1, β-actin and Lamin B were purchased from Santa Cruz Biotechnologies (USA) and Nrf2 from Novus Biologicals (USA).
as §1

For `Oc1ccc2c(c1)COc1cc(O)ccc1-2` [UAS03, 6H-benzo[c]chromene-3,8-diol], in the series with 5FUR HCT116 cells, the “EMT markers ZO-1, E-Cadherin, Snail, β-catenin” value was “upregulated ZO-1, E-Cadherin, and down regulated Snail and β-catenin”. In the series on C57BL/6 mice, the “colitis phenotype, therapeutic regimen” value is recorded as “reversed the colitis phenotype”; the “TNBS-induced colon shortening and colonic inflammation, pre-treatment” value is “protected”; the “barrier function, pre-treatment” value was “enhanced barrier function”. Also, the “nuclear translocation of AhR” value in the series on AhR is given as “induced the nuclear translocation”. In the series on Cyp1A1, the “Cyp1A1 activity in colon tissues compared to BNF and FICZ treated mice” value is given as “relatively more Cyp1A1 activity in colon tissues”; the “Cyp1A1 activity increase in colons” value is listed as ~3 fold; the “Cyp1A1 activity in colon and liver, AhR^−/− mice” value is listed as “but not in AhR^−/− mice”; the “Cyp1A1 activity in colon and liver, wild type mice” value was “activated Cyp1A1 activity”. Also, in the series on Nrf2, the “NQO1 expression in HT29 cells” value is listed as “induced NQO1 expression”; the “Nrf2 mRNA and protein levels” value is “upregulated Nrf2”; the Nrf2 nuclear translocation entry is “induced its nuclear translocation”.
For `O=c1oc2cc(O)ccc2c2ccc(O)cc12` [UroA, 3,8-dihydroxy-6H-dibenzo[b,d]pyran-6-one], in the series on 5FUR HCT116 cells, the “EMT markers ZO-1, E-Cadherin, Snail, β-catenin” value is “upregulated ZO-1, E-Cadherin, and down regulated Snail and β-catenin”. Further, in the series with 5FUR HCT116 cells (colon cancer cell lines), the “expression of E-cadherin” value is reported as “enhanced the expression of E-cadherin”. For the same compound, in the series with C57BL/6 mice, the “colitis phenotype, therapeutic regimen” value was “reversed the colitis phenotype”; the “TNBS-induced colon shortening and colonic inflammation, pre-treatment” value is recorded as “protected”; the “barrier function, pre-treatment” value is recorded as “enhanced barrier function”. Moreover, in the series on AhR, the “nuclear translocation of AhR” value is reported as “induced the nuclear translocation”. Besides, in the series with Cyp1A1, the “Cyp1A1 activity in colon tissues compared to BNF and FICZ treated mice” value is on record as “relatively more Cyp1A1 activity in colon tissues”; the “Cyp1A1 activity increase in colons” value is ~3 fold; the “Cyp1A1 activity in colon and liver, AhR^−/− mice” value is listed as “but not in AhR^−/− mice”; the “Cyp1A1 activity in colon and liver, wild type mice” value is on record as “activated Cyp1A1 activity”. Besides, in the series with Nrf2, the “NQO1 expression in HT29 cells” value is reported as “induced NQO1 expression”; the “Nrf2 mRNA and protein levels” value is recorded as “upregulated Nrf2”; the Nrf2 nuclear translocation result is recorded as “induced its nuclear translocation”.

These data come from US12377069B2, “Compounds, compositions, methods of using, and methods for preparing compounds” (UNIVERSITY OF LOUISVILLE RESEARCH FOUNDATION, INC., priority 2018, dated 2025).
